Results taken from patent US7820651B2, “Preparation of antimicrobial formulations using 7-oxa-2-thia-1,5-diazabicyclo[3.3.1]nonane-2,2-dione” (priority 2006, dated 2010).

Columns and labels:
[1] = type: physicochemical
From the text: In contrast to taurolidin, cyclotaurolidine can therefore also be processed to give formulations in organic vehicles, for example in many customary organic vehicle materials for pharmaceutical and cosmetic purposes. This permits, for example, advantageous use in ointments and gels and on plastic surfaces (in the surface layers of stents), for example in agents for disinfecting the skin surface or as a fungicide, for example for the feet.

A. niger (ATCC 16404) = test: Fungicidal activity according to DIN EN 1275 (membrane filtration), microbial count reduction; type: cell-based; settings: 20°±1° C., pH 6.3
Description: (§1) With regard to a possible use as lock solution, a solution was prepared, for testing for antimicrobial activity, by dissolving 0.85 g of cyclotaurolidine and 4.8 g of monosodium citrate in water (100 ml) with stirring, a clear colorless solution being obtained. After the pH of the solution had been adjusted to 6.3, the solution was filtered and filled into ampoules. The bactericidal and fungicidal activity of the solution was tested by a recognized test laboratory according to DIN EN 1040 and DIN EN 1275 (membrane filtration) against the test organisms S. aureus (ATCC 6538), P. aeruginosa (ATCC 15442), S. epidermis (ATCC 12288), C. albicans (ATCC 10231) and A. niger (ATCC 16404). The microbial count reductions observed for an action time of the test solution of 60 min and of 24 h at a test temperature of 20°±1° C. were determined. The results are given in log steps of the microbial count reduction, minimum reductions of ≧5.0 log steps being required with respect to the test microorganisms S. aureus, P. aeruginosa and S. epidermis and log steps of ≧4.0 for C. albicans and A. niger, based on DIN EN 1040 and DIN EN 1275.

C. albicans (ATCC 10231) = test: as above; type: cell-based; settings: 20°±1° C., pH 6.3
Description: as §1

S. aureus (ATCC 6538) = test: Bactericidal activity according to DIN EN 1040 (membrane filtration), microbial count reduction; type: cell-based; settings: 20°±1° C., pH 6.3
Description: as §1

[2] = system: P. aeruginosa (ATCC 15442); test: as above; type: cell-based; settings: 20°±1° C., pH 6.3
Description: as §1

[3] = system: S. epidermis (ATCC 12288); test: as above; type: cell-based; settings: 20°±1° C., pH 6.3
Description: as §1

[4] = Exploratory experiments for dissolving in water (solubility); type: physicochemical; settings: in 100 ml of water at room temperature
[5] = action time 60 min, 0.85 g cyclotaurolidine and 4.8 g monosodium citrate in 100 ml water
[6] = action time 24 h, 0.85 g cyclotaurolidine and 4.8 g monosodium citrate in 100 ml water
[7] = action time 60 min, comparative aqueous solution, 2% by weight of taurolidin with citrate
[8] = action time 24 h, comparative aqueous solution, 2% by weight of taurolidin with citrate

For `O=S1(=O)CCN2COCN1C2` [cyclotaurolidine, 7-oxa-2-thia-1,5-diazabicyclo[3.3.1]nonane-2,2-dione], the “solubility in organic solvents” value [1] was “soluble in various organic solvents”, the “stability in the air” value [1] was “stable in the air at customary temperatures” and the microbial count reduction (A. niger (ATCC 16404); [5]) was > 4.08 log steps. For the same compound, the microbial count reduction (A. niger (ATCC 16404); [6]) was > 4.08 log steps, the microbial count reduction (C. albicans (ATCC 10231); [5]) was > 4.26 log steps and the microbial count reduction (C. albicans (ATCC 10231); [6]) was > 4.26 log steps. The microbial count reduction (S. aureus (ATCC 6538); [5]) was 2.04 log steps, the microbial count reduction (S. aureus (ATCC 6538); [6]) was > 5.25 log steps and the microbial count reduction [2, 5] was > 5.27 log steps. For the same compound, the microbial count reduction [2, 6] was > 5.27 log steps, the microbial count reduction [3, 5] was 1.22 log steps and the microbial count reduction [3, 6] was > 5.29 log steps. For the same compound, the solubility [4] was ≤ 13 mg/mL.

In the case of `O=S1(=O)CCN(CN2CCS(=O)(=O)NC2)CN1` [taurolidin, reference compound], the microbial count reduction (A. niger (ATCC 16404); [7]) is reported as 1.18 log steps, the microbial count reduction (A. niger (ATCC 16404); [8]) is reported as ≥ 4.08 log steps and the microbial count reduction (C. albicans (ATCC 10231); [7]) is reported as 0 log steps. The microbial count reduction (C. albicans (ATCC 10231); [8]) was 3.70 log steps, the microbial count reduction (S. aureus (ATCC 6538); [7]) was 1.33 log steps and the microbial count reduction (S. aureus (ATCC 6538); [8]) was ≥ 5.25 log steps. The microbial count reduction [2, 7] was > 5.27 log steps, the microbial count reduction [2, 8] was ≥ 5.27 log steps and the microbial count reduction [3, 7] was > 0.99 log steps. For the same compound, the microbial count reduction [3, 8] was ≥ 5.29 log steps.
